The text below walks through data of ChEMBL document CHEMBL1201862, “PubChem BioAssay data set” (2004).

Some test systems named below: UACC-257; PC-3; MOLT-4; HCC 2998; SK-MEL-5; OVCAR-8; Hs-578T; SNB-19; ACHN; EKVX; SW-620; T47D; HCT-116; M14; HT-29; A549; RXF 393; NCI-H460; CAKI-1.
Holding throughout (test): NCI anticancer screen, dose series, 48 h

SMILES strings stand for the structures.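 In this assay, cells in 96-well plates receive the compound at five concentrations for 48 hours. Endpoints are linearly interpolated between the surrounding concentrations. GI50 = concentration required for 50% inhibition of growth.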 Activity calls are given as the source filed them. Cut-off read from the data, not from the text of the source: active = GI50 up to about 1.1 µM and inactive = higher.

As for `CN(C)CCCNC(CC#N)CCC#N` (stereo not given), the GI50 in the test on UACC-257, with PC-3, with MOLT-4, in the test with HCC 2998, in the test with SK-MEL-5 and in the test on OVCAR-8 was > 10 µM (inactive) each time. The GI50 in the test with Hs-578T, in the test with SNB-19, with ACHN, in the test with EKVX, with SW-620 and in the test with T47D was > 10 µM (inactive) each time. The GI50 in the test with HCT-116, in the test on M14, with HT-29, in the test on A549, in the test with RXF 393 and in the test with NCI-H460 was > 10 µM (inactive) in each case. Also, the GI50 in the test with CAKI-1 was > 10 µM (inactive).
For `Cc1cc(N(CCCl)CCCl)ccc1/C=N/NC(=O)Cc1cc(=O)oc2cc(O)ccc12`, the GI50 in the test with UACC-257 was 20.8 µM (inactive); in the test with PC-3, 11.9 µM (inactive); in the test with MOLT-4, 5.6 µM (inactive); in the test on HCC 2998, 28.2 µM (inactive); in the test with SK-MEL-5 it was 8.51 µM (inactive); in the test on OVCAR-8, 19.5 µM (inactive). The GI50 with Hs-578T was 17.2 µM (inactive); in the test with SNB-19, 18 µM (inactive); in the test on ACHN it was 6.67 µM (inactive); with EKVX, 20.4 µM (inactive); in the test on SW-620, 21.4 µM (inactive); with T47D, 6.85 µM (inactive). The GI50 in the test on HCT-116 is 17.5 µM (inactive); with M14, 14.3 µM (inactive); with HT-29, 14.7 µM (inactive); in the test with A549 it was 12.2 µM (inactive); in the test with RXF 393, 16.6 µM (inactive); in the test with NCI-H460 it was 8.93 µM (inactive). The GI50 in the test with CAKI-1 is 6.4 µM (inactive).
With `C#C[C@]1(O)CC[C@H]2[C@@H]3CCC4=C/C(=N/OC(=O)c5cccc6c(=O)c7ccccc7[nH]c56)CCC4[C@H]3CC[C@@]21CC` (stereo not given in full), the GI50 with UACC-257 was 11.3 µM (inactive); in the test with PC-3, 18.5 µM (inactive); in the test on MOLT-4, 4.3 µM (inactive); in the test with HCC 2998, 26.5 µM (inactive); with SK-MEL-5, 14.9 µM (inactive); in the test with OVCAR-8, 19.8 µM (inactive). For the same compound, the GI50 with Hs-578T was > 100 µM (inactive); in the test with SNB-19, 69.3 µM (inactive); with ACHN, 26.2 µM (inactive); with EKVX, 22.2 µM (inactive); with SW-620, 24 µM (inactive); with T47D it was 24.8 µM (inactive). The GI50 was 25 µM (inactive) with HCT-116; 34.5 µM (inactive) with M14; 8.28 µM (inactive) in the test on HT-29; 41.7 µM (inactive) in the test on A549; 2.34 µM (inactive) in the test with RXF 393; 14.3 µM (inactive) in the test with NCI-H460. The GI50 with CAKI-1 was 32.4 µM (inactive).
With `S=C1N=C(Cl)/C(=C\c2ccccc2)N1`, the GI50 is > 100 µM (inactive) in the test on UACC-257; > 100 µM (inactive) in the test on PC-3; > 100 µM (inactive) with MOLT-4; 1.06 µM (active) in the test with HCC 2998; > 100 µM (inactive) in the test with SK-MEL-5; > 100 µM (inactive) in the test with OVCAR-8. Besides, the GI50 with Hs-578T, in the test with SNB-19, in the test on ACHN, in the test on EKVX, with SW-620 and in the test on T47D was > 100 µM (inactive) each time. In addition, the GI50 with HCT-116 was > 100 µM (inactive); with M14, > 100 µM (inactive); in the test on HT-29 it was > 100 µM (inactive); with A549, > 83.6 µM (inactive); with RXF 393, > 100 µM (inactive); with NCI-H460, > 100 µM (inactive). Besides, the GI50 in the test on CAKI-1 was > 100 µM (inactive).
As to `O=C(O)Cc1cc(O)c(CC(=O)O)cc1O`, the GI50 with UACC-257, in the test on PC-3, in the test with MOLT-4, with HCC 2998, in the test on SK-MEL-5 and in the test with OVCAR-8 was > 100 µM (inactive) in each case. For the same compound, the GI50 in the test with Hs-578T, with SNB-19, in the test with ACHN, with EKVX, in the test on SW-620 and in the test on T47D was > 100 µM (inactive) each time. Further, the GI50 in the test on HCT-116, in the test on M14, in the test with HT-29, with A549, with RXF 393 and with NCI-H460 was > 100 µM (inactive) each time. For the same compound, in the test with CAKI-1, the GI50 is > 100 µM (inactive).
For `O=C(O)CC(NC(=O)/C(=C/c1ccccc1)NC(=O)c1ccccc1)C(=O)O` (stereo not given), the GI50 in the test on UACC-257, in the test on PC-3, in the test with MOLT-4, in the test with HCC 2998, in the test with SK-MEL-5 and in the test on OVCAR-8 was > 100 µM (inactive) in each case. Moreover, the GI50 in the test on Hs-578T, in the test on SNB-19, in the test with ACHN, in the test with EKVX, with SW-620 and with T47D was > 100 µM (inactive) in each case. Besides, the GI50 in the test with HCT-116, in the test with M14, in the test on HT-29, in the test with A549, with RXF 393 and with NCI-H460 was > 100 µM (inactive) each time. In addition, the GI50 in the test with CAKI-1 is > 100 µM (inactive).
`O=C1NCN(c2ccccc2)C12CCN(CC1COc3ccccc3O1)CC2` (stereo not given) [SPIROXATRINE]: the GI50 is 36.6 µM (inactive) in the test with UACC-257; 51.9 µM (inactive) in the test with PC-3; > 100 µM (inactive) in the test on MOLT-4; > 100 µM (inactive) with HCC 2998; > 100 µM (inactive) in the test on SK-MEL-5; 69.3 µM (inactive) in the test on OVCAR-8. Further, the GI50 in the test on Hs-578T is 23.5 µM (inactive); in the test on SNB-19, 30.3 µM (inactive); in the test on ACHN, 84.1 µM (inactive); in the test on EKVX, 43.5 µM (inactive); in the test on SW-620 it was > 100 µM (inactive); in the test on T47D it was 54 µM (inactive). Further, the GI50 was > 100 µM (inactive) in the test on HCT-116; > 100 µM (inactive) in the test with M14; > 100 µM (inactive) with HT-29; > 100 µM (inactive) in the test with A549; 29.9 µM (inactive) in the test with RXF 393; > 100 µM (inactive) in the test with NCI-H460. Further, the GI50 in the test on CAKI-1 was 39.8 µM (inactive).
With `N#Cc1c(-c2ccccc2)[nH]c(=O)n(C2OC(CO)C(O)C(O)C2O)c1=O` (stereo not given), the GI50 in the test with UACC-257, with PC-3, in the test with MOLT-4, in the test on HCC 2998, with SK-MEL-5 and with OVCAR-8 was > 100 µM (inactive) each time. The GI50 in the test with Hs-578T, with SNB-19, in the test on ACHN, in the test on EKVX, in the test with SW-620 and in the test on T47D was > 100 µM (inactive) throughout. The GI50 in the test on HCT-116, in the test on M14, in the test on HT-29, in the test on A549, in the test on RXF 393 and with NCI-H460 was > 100 µM (inactive) in each case. In addition, the GI50 in the test on CAKI-1 was > 100 µM (inactive).
For the compound `Cc1cccc2c(N)c3cccc(C(=O)NCC[N+](C)(C)Cc4ccc(S(C)(=O)=O)cc4)c3nc12`, the GI50 was > 100 µM (inactive) in the test on UACC-257; 44.2 µM (inactive) in the test on PC-3; 2.02 µM (inactive) in the test on MOLT-4; 46.7 µM (inactive) with HCC 2998; 70.5 µM (inactive) in the test with SK-MEL-5; 79.6 µM (inactive) in the test on OVCAR-8. Besides, the GI50 with Hs-578T is 19.9 µM (inactive); in the test with SNB-19 it was 18.7 µM (inactive); in the test on ACHN it was 31.4 µM (inactive); in the test on EKVX, > 91.2 µM (inactive); in the test with SW-620 it was 56.4 µM (inactive); with T47D, 59.7 µM (inactive). Further, the GI50 is 36.5 µM (inactive) in the test with HCT-116; > 100 µM (inactive) with M14; 36.6 µM (inactive) with HT-29; 1.44 µM (inactive) in the test on A549; 76.7 µM (inactive) in the test with RXF 393; 4.3 µM (inactive) in the test on NCI-H460. Also, the GI50 with CAKI-1 is 26.1 µM (inactive).
As to `CC(C)CCNC(=O)c1ccc(CNC(=O)/C=C/c2cccc(Oc3ccccc3)c2)cc1`, the GI50 was 23.2 µM (inactive) with UACC-257; 46.2 µM (inactive) in the test on PC-3; > 100 µM (inactive) in the test with MOLT-4; 26.9 µM (inactive) with HCC 2998; 51.2 µM (inactive) with SK-MEL-5; 25.9 µM (inactive) in the test with OVCAR-8. The GI50 is > 100 µM (inactive) in the test on Hs-578T; 24.5 µM (inactive) in the test with SNB-19; 48.4 µM (inactive) in the test on ACHN; 23.1 µM (inactive) in the test on EKVX; 41.4 µM (inactive) with SW-620; 79.3 µM (inactive) in the test on T47D. For the same compound, the GI50 in the test with HCT-116 was 24.5 µM (inactive); in the test with M14, 31 µM (inactive); in the test with HT-29, 30.5 µM (inactive); in the test on A549, 42.6 µM (inactive); with RXF 393, 18.6 µM (inactive); with NCI-H460, 34.3 µM (inactive). In addition, in the test with CAKI-1, the GI50 is 47.1 µM (inactive).
